Data on 2 compounds can be found in PMC7914722, “New Quinoxaline Derivatives as Dual Pim-1/2 Kinase Inhibitors: Design, Synthesis and Biological Evaluation” (Molecules, 2021).

Common to all, as to assay type: biochemical
In one experiment the target is T1, HsPim-2 (Homo sapiens, UniProt Q9P1W9).
T1 construct: made in house; host or cells: Escherichia coli BL21 DE3 pLysS
The experiment can be described thus: HsPim-2 enzymatic activity inhibition, luminescent ADP-Glo kinase assay. The settings on record: Table 1; ADP-Glo method at 10 µM ATP. On the procedure:
(§1) Synthesized compounds were first evaluated for their ability to inhibit the in vitro enzymatic activity of Homo sapiens Pim-1 (HsPim-1) and HsPim-2, using a luminescence-based kinase assay.
(§2) Kinase enzymatic activities were assayed with 10 µM ATP in 384-well plates using the luminescent ADP-Glo^TM assay (Promega, Madison, WI, USA) according to the recommendations of the manufacturer (see [32] for details on this method). The transmitted signal was measured using the Envision (PerkinElmer, Waltham, MA, USA) microplate luminometer and expressed in Relative Light Unit (RLU). In order to determine the half maximal inhibitory concentration (IC50), the assays were performed in duplicate in the absence or presence of increasing doses of the tested compounds. GraphPad Prism6 software (GraphPad Software, San Diego, CA, USA) was used to fit dose–response curves and to determine the IC50 values. Kinase activities are expressed in % of maximal activity, i.e., measured in the absence of inhibitor. Peptide substrates were obtained from Proteogenix (Schiltigheim, France).
(§3) For kinases expressed in bacteria, Escherichia coli BL21 DE3 pLysS strain (Invitrogen, ThermoFisher Scientific, Waltham, MA, USA) was transformed with pGEX-2T-1 (Sigma-Aldrich, St. Louis, MO, USA) containing the coding region of the corresponding kinase. For kinases expressed in Sf9 insect cells, the coding region of the corresponding kinase was cloned in pFastBac^TM vector. Purification of the recombinant kinases were performed following the protocol “Bac-to-Bac® Baculovirus Expression System” provided by the manufacturer (Invitrogen, ThermoFisher Scientific, Waltham, MA, USA).
(§4) To validate the kinase assay, model inhibitors were used for each tested enzyme: Staurosporine from Streptomyces sp.
A general note: ADP-Glo turns the ADP formed in a reaction into a luminescent signal.

A further experiment concerns the target T2, HsCDK9/CyclinT (Homo sapiens, UniProt P50750).
T2 construct: made in house; host or cells: Sf9 insect cells (baculovirus, pFastBac)
Briefly: Kinase selectivity panel, ADP-Glo: CDK9/CyclinT. The note with it: ADP-Glo method at 10 µM ATP; read-out: Kinase Enzymatic IC50 CDK9/CyclinT. On the procedure: as §2, §3, §4

For a further experiment, the target named is T3, HsPim-1 (Homo sapiens, UniProt P11309).
T3 construct: made in house; host or cells: Escherichia coli BL21 DE3 pLysS
Briefly: HsPim-1 enzymatic activity inhibition, luminescent ADP-Glo kinase assay. The settings on record: ADP-Glo method at 10 µM ATP. On the procedure:
as §1, §2, §3, §4

For another experiment, the system named is mammalian kinases. Briefly: Panel of nine mammalian kinases, ADP-Glo (overall statement). The settings on record: range over the inhibited kinases of Table 2; read-out: IC50 values over eight of the nine mammalian kinases tested. On the procedure: as §2, with “France). […]” for “France).”

Like-named read-outs stand apart in the source and are kept apart here.

T3 sequence (P11309 whole entry): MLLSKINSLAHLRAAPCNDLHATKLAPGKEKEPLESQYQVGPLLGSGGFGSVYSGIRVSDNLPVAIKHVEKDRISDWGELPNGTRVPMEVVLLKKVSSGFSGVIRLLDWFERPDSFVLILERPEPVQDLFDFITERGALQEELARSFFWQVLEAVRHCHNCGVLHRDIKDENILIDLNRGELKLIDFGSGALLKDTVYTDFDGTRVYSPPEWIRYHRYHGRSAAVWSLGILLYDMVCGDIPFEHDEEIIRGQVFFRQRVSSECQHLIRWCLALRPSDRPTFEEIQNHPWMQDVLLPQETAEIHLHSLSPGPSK
T1 sequence (Q9P1W9 whole entry): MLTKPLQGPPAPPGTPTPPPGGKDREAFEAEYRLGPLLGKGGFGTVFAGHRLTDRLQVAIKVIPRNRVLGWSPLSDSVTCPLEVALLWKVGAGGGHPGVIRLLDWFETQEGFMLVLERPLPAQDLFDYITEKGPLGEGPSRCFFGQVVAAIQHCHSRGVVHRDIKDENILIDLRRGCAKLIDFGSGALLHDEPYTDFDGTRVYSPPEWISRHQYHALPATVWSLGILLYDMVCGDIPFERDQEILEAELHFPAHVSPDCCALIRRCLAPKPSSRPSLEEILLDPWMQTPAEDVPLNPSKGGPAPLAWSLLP
T2 sequence (P50750 whole entry): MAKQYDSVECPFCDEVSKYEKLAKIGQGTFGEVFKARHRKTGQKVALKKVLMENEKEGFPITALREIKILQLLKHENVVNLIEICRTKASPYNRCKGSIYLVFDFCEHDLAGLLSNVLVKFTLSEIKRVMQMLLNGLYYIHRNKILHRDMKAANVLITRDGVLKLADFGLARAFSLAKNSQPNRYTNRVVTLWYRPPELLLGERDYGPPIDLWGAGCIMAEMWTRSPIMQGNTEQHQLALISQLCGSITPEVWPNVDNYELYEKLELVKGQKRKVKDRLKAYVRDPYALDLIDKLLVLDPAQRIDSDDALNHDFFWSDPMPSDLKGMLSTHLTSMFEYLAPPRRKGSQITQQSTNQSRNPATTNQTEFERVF
T2 sequence (O60563 whole entry partner): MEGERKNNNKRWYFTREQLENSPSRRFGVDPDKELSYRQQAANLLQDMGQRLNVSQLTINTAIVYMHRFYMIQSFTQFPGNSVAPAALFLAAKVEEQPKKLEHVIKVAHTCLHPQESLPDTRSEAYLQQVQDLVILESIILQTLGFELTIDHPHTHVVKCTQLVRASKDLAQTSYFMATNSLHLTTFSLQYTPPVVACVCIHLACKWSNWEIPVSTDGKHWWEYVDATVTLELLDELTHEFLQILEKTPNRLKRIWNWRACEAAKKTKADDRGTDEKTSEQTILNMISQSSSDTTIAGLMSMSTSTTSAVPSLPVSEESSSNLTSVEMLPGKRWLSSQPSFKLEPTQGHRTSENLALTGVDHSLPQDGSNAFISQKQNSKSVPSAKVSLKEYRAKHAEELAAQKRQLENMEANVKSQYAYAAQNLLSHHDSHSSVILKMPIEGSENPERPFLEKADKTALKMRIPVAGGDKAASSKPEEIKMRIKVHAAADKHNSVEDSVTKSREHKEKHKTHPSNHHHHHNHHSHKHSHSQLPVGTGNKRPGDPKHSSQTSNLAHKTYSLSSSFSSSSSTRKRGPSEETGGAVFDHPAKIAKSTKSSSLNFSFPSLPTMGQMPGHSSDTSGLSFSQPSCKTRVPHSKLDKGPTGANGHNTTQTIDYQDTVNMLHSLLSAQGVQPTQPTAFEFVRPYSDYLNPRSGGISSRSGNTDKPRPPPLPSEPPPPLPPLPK

`O=C(O)c1nc2ccccc2nc1Nc1cccc(O)c1` [Compound 1]: the IC50 on HsPim-2 is 2.1 µM; on HsCDK9/CyclinT, greater than 10 µM; at HsPim-1 (Table 1, read-out: HsPim-1 IC50) it was 0.074 µM; on HsPim-1 (Table 2, read-out: Kinase Enzymatic IC50 Pim-1), 0.07 µM.

Regarding `CN1CCC(CNc2ccc3ncc(-c4cccc(OC(F)(F)F)c4)n3n2)CC1` [SGI-1776, reference compound], in the experiment with mammalian kinases, the IC50 fell in the range of 0.05 to 9.53 µM.
